{
  "source": "patent US20210378193A1",
  "about": "“HAPLOID EMBRYOGENESIS” (STICHTING WAGENINGEN RESEARCH, priority 2013, published 2021)",
  "tested_on": "B. napus DH 12075 microspore-derived embryos",
  "assay": "conversion of microspore-derived embryos to seedlings (roots, shoots)",
  "assay_type": "cell-based, Brassica napus",
  "settings": "embryos transferred to regeneration medium",
  "description": "All of the embryos that produced roots, except for the short embryo type, initiated root development from the root meristem, as evidenced by the development of roots within a few days of growth on germination medium.\nIn FIG. 12B, different types of embryos derived from different populations of microspores/pollen treated with DMSO (control) or different concentrations of HDACi were transferred to a regeneration medium and evaluated for their ability to produce shoots (a measure of conversion).",
  "data": [
    {"smiles": "O=C(CCCCCCC(=O)Nc1ccccc1)NO", "note": "[SAHA, suberoylanilide hydroxamic acid]", "values": [
      {"measurement": "germination (ability to produce shoots, a measure of conversion) compared to the control", "value": "improved"}
    ]}
  ]
}
